Several values for one entry are separate records, joined by “and”; a condition that tells them apart may be missing. Identical values can stand only once. Counter-ions that a name gives are not always drawn. Like-named read-outs stand apart in the source and are kept apart here.
How the values were obtained:
[1] = molecular target: SARS-CoV-2 helicase (nsp13) (Severe acute respiratory syndrome coronavirus 2, UniProt P0DTD1); assay: biochemical; assay type: biochemical
[2] = molecular target: SARS-CoV-2 RdRp nsp12/7/8 complex (Severe acute respiratory syndrome coronavirus 2, UniProt P0DTD1); assay: biochemical; assay type: biochemical; settings: for inhibition at 20 µM: read-out: RdRp Inhibition [%] 20 µM (PS Inhibition RdRp [%])
SARS-CoV-2 helicase = SARS-CoV-2 helicase (Severe acute respiratory syndrome coronavirus 2, UniProt P0DTD1); assay type: binding
[3] = molecular target: SARS-CoV-2 nsp13 NTPase activity (Severe acute respiratory syndrome coronavirus 2, UniProt P0DTD1); assay: biochemical; assay type: biochemical; settings: for inhibition at 20 µM: read-out: ATPase inhibition [%] 20 µM (HC Helicase ATPase inhibition [%])
RdRp complex = RdRp complex (Severe acute respiratory syndrome coronavirus 2, UniProt P0DTD1); assay type: binding, SARS-CoV-2
[4] = read-out: DTT Helicase unwinding inhibition [%] 2.5 µM triplicates
[5] = read-out: Helicase Inhibition [%] 20 µM (PS Inhibition Helicase [%])
[6] = read-out: Helicase unwinding inhibition 2.5 µM triplicates

Compound | Helicase Inhibition [%] 20 µM (PS Inhibition Helicase [%]) [1] [%] | PicoGreen effect [%] 20 µM (annealed dsDNA substrate) [%] | RdRp Inhibition [%] 20 µM (PS Inhibition RdRp [%]) [2] [%] | inhibition at 20 µM [1, 5] [%] | IC50 ([2]; RdRp IC50 [µM]) [µM] | inhibition at 20 µM [2] [%] | further results
N#C/C(=C\c1ccc(O)c(O)c1)C(=O)OCCc1cccs1 [2-TEDC] | 8.66 | 7.15 | 97.86 |  |  |  | IC50 ([2]; read-out: RdRp IC50): 7.99 µM
O=C(O[C@@H]1Cc2c(O)cc(O)cc2O[C@@H]1c1cc(O)c(O)c(O)c1)c1cc(O)c(O)c(O)c1 [(−)-epigallocatechin gallate] |  |  | 85.49 | 96.4 |  |  | DTT nsp13 inhibition [%] 20 µM (DTT HC Helicase inhibition [%]) [1]: 78.10%; inhibition at 2.5 µM [1, 4]: 73.5%; Helicase Tm °C 20 µM (SARS-CoV-2 helicase): 38.4 °C; Helicase Tm °C 100 µM (SARS-CoV-2 helicase): 39.6 °C; effect on helicase Tm (SARS-CoV-2 helicase): did not result in a Tm change; DTT Helicase ATPase activity PLUS DNA substrate 2 µM [3]: 31.66; DTT Helicase ATPase activity [%] 2 µM [3]: 43.42%; gain of ATPase activity reduction in the presence of dsDNA substrate [3]: 10–15%
Nc1ncnc2c1ncn2[C@@H]1O[C@H](COP(=O)(O)OP(=O)(O)OP(=O)(O)O)[C@@H](O)[C@H]1O [ATP, adenosine triphosphate] |  |  |  |  |  |  | Kmapp (mM) ATP, - DTT [1]: 1.9 mM; apparent Kmapp (RdRp substrates) [2]: 102.7 µM
O=C(O)c1ccccc1Nc1ccc(CCc2ccc(Cl)c(Cl)c2)cc1 [PD-118057] | 7.76 | 11.19 | 81.81 |  |  |  | IC50 ([2]; read-out: RdRp IC50): > 20 µM
C=CCn1c(CSc2ccccc2[N+](=O)[O-])n[nH]c1=S [SSYA10-001] |  |  |  |  |  |  | inhibition of helicase unwinding activity in presence of DTT [1]: effectively eliminated the inhibition; inhibition of helicase NTPase activity, absence of DTT [3]: inhibits NTPase activity only in the absence of DTT
CC(C)c1ccccc1Cc1cc(C(=O)Nc2ccc(S(=O)(=O)c3ccccc3C(C)(C)C)cc2)c(O)c(O)c1O [TW-37] | 3.76 | 3.9 | 89.4 |  |  |  | IC50 ([2]; read-out: RdRp IC50): 13.7 µM
OC[C@H]1O[C@H]([S-])[C@H](O)[C@@H](O)[C@@H]1O.[Au+] [aurothioglucose] | 100.73 | 13.9 | 4.77 |  |  |  | DTT nsp13 inhibition [%] 20 µM (DTT HC Helicase inhibition [%]) [1]: 98.65%; IC50 ([1]; read-out: DTT Helicase IC50): 10.6 µM; IC50 ([1]; read-out: Helicase IC50): 1.95 µM; ATPase inhibition [%] 20 µM (HC Helicase ATPase inhibition [%]) [3]: 106.07%
CC1(C)C(/C=C/C=C/C=C/C=C2\N(CCCCS(=O)(=O)O)c3ccc4ccccc4c3C2(C)C)=[N+](CCCCS(=O)(=O)[O-])c2ccc3ccccc3c21 [cardiogreen] |  | 26.52 | 4.44 |  |  |  | DTT Helicase unwinding inhibition [%] 2.5 µM triplicates [1]: 65% and 65.01%; DTT nsp13 inhibition [%] 20 µM (DTT HC Helicase inhibition [%]) [1]: 94.06%; Helicase unwinding inhibition 2.5 µM triplicates [1]: 66.59; IC50 ([1]; read-out: DTT Helicase IC50): 3.85 µM; IC50 ([1]; read-out: Helicase IC50): 3.57 µM; ATPase inhibition [%] 20 µM (HC Helicase ATPase inhibition [%]) [3]: 97.11%; DTT Helicase ATPase activity PLUS DNA substrate 2 µM [3]: 51.49; DTT Helicase ATPase activity [%] 2 µM [3]: 60.43%; Helicase ATPase activity PLUS DNA substrate 2 µM [3]: 32.88; Helicase ATPase activity [%] 2 µM [3]: 45.65%; gain of ATPase activity reduction in the presence of dsDNA substrate [3]: 10–15%; remaining NTPase activity [3]: 60.4%
Cc1cc(N)c2ccccc2[n+]1CCCCCCCCCC[n+]1c(C)cc(N)c2ccccc21 [dequalinium chloride] |  | −4.04 |  | 25.6 | 4.07 | 94.6 | 
O=C(Nc1ccc2c(O)cc(S(=O)(=O)[O-])cc2c1)Nc1ccc2c(O)cc(S(=O)(=O)[O-])cc2c1.[Na+].[Na+] [disodium 7,7′-(carbonyldiimino) bis(4-hydroxy-2-naphthalenesulfonate)] | 84.75 |  | 90.5 |  |  |  | DTT Helicase unwinding inhibition [%] 2.5 µM triplicates [1]: 6.27%; DTT nsp13 inhibition [%] 20 µM (DTT HC Helicase inhibition [%]) [1]: 65.72%; IC50 ([1]; read-out: DTT Helicase IC50): > 20 µM; DTT Helicase ATPase activity PLUS DNA substrate 2 µM [3]: 103.05; DTT Helicase ATPase activity [%] 2 µM [3]: 103.17%; IC50 ([2]; read-out: RdRp IC50): > 20 µM
CC1=NN(c2ccc(C)c(C)c2)C(=O)/C1=N\Nc1cccc(-c2cccc(C(=O)O)c2)c1O [eltrombopag olamine] |  | 21.05 |  | 3.09 | 4.29 | 95.2 | RdRp Tm °C 20 µM (RdRp complex): 41.5 °C; RdRp Tm °C 100 µM (RdRp complex): 43.6 °C
CCOc1ccc2nc3cc(N)ccc3c(N)c2c1 [ethacridine lactate] |  | 32.09 |  | 35.5 | 9.96 | 80.3 | 
O=C(c1cc(O)c(O)c(O)c1)c1ccc(O)c(O)c1O [exifone] |  | 8.87 |  | 100 |  | 36.6 | DTT Helicase unwinding inhibition [%] 2.5 µM triplicates [1]: 99.91%; inhibition at 2.5 µM [1, 4]: 99.9%; inhibition at 2.5 µM [1, 6]: 49.9%; Helicase Tm °C 20 µM (SARS-CoV-2 helicase): 38.3 °C; Helicase Tm °C 100 µM (SARS-CoV-2 helicase): 37.8 °C; effect on helicase Tm (SARS-CoV-2 helicase): decrease in Tm; DTT Helicase ATPase activity PLUS DNA substrate 2 µM [3]: 2.64; DTT Helicase ATPase activity [%] 2 µM [3]: 14.53%; Helicase ATPase activity PLUS DNA substrate 2 µM [3]: 4.96; Helicase ATPase activity [%] 2 µM [3]: 11.33%; gain of ATPase activity reduction in the presence of dsDNA substrate [3]: 10–15%; remaining NTPase activity [3]: 14.5%; inhibition at 20 µM [3]: 104%
OCCOCCN1CCN(C(c2ccccc2)c2ccc(Cl)cc2)CC1 (centres unmarked) [hydroxyzine pamoate] |  | 1.28 |  | 4.28 | 16.5 | 76.8 | 
C=C1c2cccc(O)c2C(=O)C2=C(O)[C@]3(O)C(=O)C(C(N)=O)=C(O)[C@@H](N(C)C)[C@@H]3[C@@H](O)[C@H]12 [methacycline hydrochloride] |  | 25.54 |  | 25.2 | 6.43 | 120 | 
O=c1c(O)c(-c2ccc(O)cc2O)oc2cc(O)cc(O)c12 [morin hydrate (aurantica), morin hydrate] | 39.33 | 20.36 | 95.67 |  |  |  | IC50 ([2]; read-out: RdRp IC50): 5.96 µM
O=C(N/N=C/c1ccc([N+](=O)[O-])o1)c1cc([N+](=O)[O-])cc([N+](=O)[O-])c1O [nifursol] |  | 8.54 |  | 5.5 | 11.5 | 100 | 
O=C(O)c1cc(/N=N/c2ccc(O)c(C(=O)O)c2)ccc1O [olsalazine sodium] |  | 12.75 |  |  | 14.4 | 84.7 | 
Cc1c(Cl)c(C)[n+]([O-])c(Cl)c1-c1noc(-c2cc(O)c(O)c([N+](=O)[O-])c2)n1 [opicapone] |  | 6.86 |  |  |  | 17.9 | DTT nsp13 inhibition [%] 20 µM (DTT HC Helicase inhibition [%]) [1]: 51.40%; IC50 ([1]; DTT Helicase IC50 [µM]): 25.5 µM; IC50 ([1]; Helicase IC50 [µM]): 1.1 µM; inhibition at 20 µM ([1]; read-out: DTT nsp13 inhibition [%] 20 µM (DTT HC Helicase inhibition [%])): > 50%; inhibition at 20 µM [3]: 96.9%
CN(C)[C@@H]1C(O)=C(C(N)=O)C(=O)[C@@]2(O)C(O)=C3C(=O)c4c(O)cccc4[C@@](C)(O)[C@H]3[C@H](O)[C@@H]12 [oxytetracycline] |  | 19.99 |  | 16.4 | 16.1 | 100 | 
CO[C@H](C(=O)[C@@H](O)[C@@H](C)O)[C@@H]1Cc2cc3cc(O[C@H]4C[C@@H](O[C@H]5C[C@@H](O)[C@H](O)[C@@H](C)O5)[C@H](O)[C@@H](C)O4)c(C)c(O)c3c(O)c2C(=O)[C@H]1O[C@H]1C[C@@H](O[C@H]2C[C@@H](O[C@H]3C[C@](C)(O)[C@H](O)[C@@H](C)O3)[C@@H](O)[C@@H](C)O2)[C@H](O)[C@@H](C)O1 [plicamycin (mithramycin), plicamycin] |  | −3.94 |  | 95.8 |  | 6.39 | DTT Helicase unwinding inhibition [%] 2.5 µM triplicates [1]: 71.99%; DTT nsp13 inhibition [%] 20 µM (DTT HC Helicase inhibition [%]) [1]: 98.09%; mode of helicase inhibition towards dsDNA substrate [1]: competitive mode of inhibition towards the dsDNA substrate; IC50 ([1]; DTT Helicase IC50 [µM]): 1.35 µM; IC50 ([1]; Helicase IC50 [µM]): 3.57 µM; inhibition at 2.5 µM [1, 4]: 72%; inhibition at 2.5 µM [1, 6]: 39%; Helicase Tm °C 20 µM (SARS-CoV-2 helicase): 38.3 °C; Helicase Tm °C 100 µM (SARS-CoV-2 helicase): 38.9 °C; effect on helicase Tm (SARS-CoV-2 helicase): did not result in a Tm change; DTT Helicase ATPase activity PLUS DNA substrate 2 µM [3]: 133.03; DTT Helicase ATPase activity [%] 2 µM [3]: 114.66%; Helicase ATPase activity PLUS DNA substrate 2 µM [3]: 159.86; Helicase ATPase activity [%] 2 µM [3]: 125.71%; remaining NTPase activity [3]: 114.6%; inhibition at 20 µM [3]: 19.8%
COc1cc(NC(C)CCCN)c2ncccc2c1 (centres unmarked) [primaquine phosphate] |  | 1.58 |  | 7.17 | 6.56 | 102 | 
O=C(O)c1c(Cl)c(Cl)c(Cl)c(Cl)c1-c1c2cc(I)c(=O)c(I)c-2oc2c(I)c(O)c(I)cc12 [rose bengal sodium salt] |  | 30.91 |  | 21.5 | > 20 | 98 | 
O=C1OC2(c3cc(I)c(O)c(I)c3Oc3c2cc(I)c(O)c3I)c2c(Cl)c(Cl)c(Cl)c(Cl)c21 [rose-bengal-lactone] | −2.61 | 35.69 | 99.44 |  |  |  | 
FPA-124 |  | −3.30 | 7.70 |  |  |  | DTT nsp13 inhibition [%] 20 µM (DTT HC Helicase inhibition [%]) [1]: 64.76%
tyrphostin-AG-835 | 7.56 | 11.5 | 84.15 |  |  |  | IC50 ([2]; read-out: RdRp IC50): 9.64 µM
